Data taken from patent publication US7683024B2, “Polyaminoacids functionalized by alpha tocopherol and uses thereof, particular for therapeutic applications” (Flamel Technologies, priority 2002, dated 2010).

Assay: Comparative analysis of solutions at 15 mg/ml in water at pH 7.4 (phosphate buffer)
Assay type: physicochemical

Cc1c(C)c2c(c(C)c1OC(=O)CCC(=O)O)CC[C@@](C)(CCC[C@H](C)CCC[C@H](C)CCCC(C)C)O2 [α-tocopherol succinate]
Appearance of solution: milky solution
